Measurements taken from EP1428520A2, “Lipase inhibitors in deodorants and antiperspirants” (Henkel Kommanditgesellschaft auf Aktien, priority 2002, dated 2004).

Test system: Lipase (Fa. Sigma) aus Pseudomonas species
Experiment: In vitro lipase inhibition test (Lipase Color Liquid assay, photometric release of methylresorufin)
Type: biochemical
Conditions: 37°C, pH 8.4, activity without inhibitor = 100%
Source text: Die hemmende Wirkung der Enzym-Inhibitoren wurde in vitro an einem geeigneten Modellenzym nachgewiesen. Da eine hautrelevante Lipase nicht zur Verfügung stand, diente die Lipase (Fa. Sigma) aus Pseudomonas species als Modellenzym, um die Hemmwirkung der erfindungsgemäß verwendeten Inhibitoren zu testen. Als Referenz diente Hinokitiol.
Der Nachweis der Lipase-Enzymaktivität erfolgt analog zu den Angaben im Lipase Color Liquid Autom ―Datenblatt der Fa. Sentinel. Hierbei wird die Lipase-katalysierte Spaltung von 1,2-O-dilauryl-rac-glycero-3-glutarsäure-(6'-methylresorufin)-ester in Glutarsäure und Methylresorufin bestimmt. Die Freisetzung des Methylresorufin verursacht eine Purpurfärbung (λ = 580 nm), deren Bildung photometrisch verfolgt wird. [drawing 4]
Der Assay wurde nach Herstellerangaben (37°C, Gesamtvolumen 1.21 ml) durchgeführt und enthielt: 37 mM Tris-Puffer (pH 8.4), 1,6 mM Desoxycholat, 6.6 mM Taurodesoxycholat, 0.9 mg/l Colipase, 1.5 mM Tartrat, 0.1 mM CaCl2 und 0.24 mM 1,2-O-dilauryl-rac-glycero-3-glutaric acid-(6'-methylresorufin)-ester (Substrat). Die Reaktion wurde mit 0.005 U Lipase (10 µl) gestartet und nach einer Inkubation von einer Minute die Zunahme der Absorption bei […] über 2 min verfolgt. Der lineare Anstieg der Absorption (A) pro Zeiteinheit (t) war hierbei ein Maß für die Aktivität des Enzyms (ΔA/Δt). Die Aktivität des Enzyms in Abwesenheit eines Inhibitors, (ΔA1/Δt1 ), wurde als Referenz gleich 100% gesetzt. Unter analogen Bedingungen wurden die Aktivitäten in Gegenwart eines Inhibitors (ΔA2/Δt2) bestimmt. Die Hemmwirkung des Inhibitors bzw. die Minderung der Enzymaktivität entspricht dann: 100% - (ΔA2/Δt2 )/( ΔA1/Δt1 )%.

Hemmwirkung (Minderung der Lipase-Aktivität) (inhibitor concentration 0,01 % (v/v)): 29%
Hemmwirkung (Minderung der Lipase-Aktivität) (inhibitor concentration 0,1 % (v/v)): 56%
Hemmwirkung (Minderung der Lipase-Aktivität) (inhibitor concentration 1 % (v/v)): 85%
Structure (SMILES): CCCCCCCCCCCC(=O)NC(CCC(=O)O)C(=O)O (stereo not drawn) [Protelan AGL95PV, Natriumlauroylglutamat]
